Experimental data from US6855872B2 (priority 1997, dated 2005).

Legend:
[1] = test system: protoplasts from wild-type tobacco plants; assay type: cell-based, Nicotiana tabacum
[2] = test system: protoplasts from transgenic plants with the rice Rpl3 gene (C3 lines); assay type: cell-based, Nicotiana tabacum
[3] = test system: maize embryogenic cultures (A188xB73) transformed with pActRPL3; assay type: cell-based
[4] = test system: leaf explants of pCAPRL3 plants; assay type: cell-based
[5] = test system: cells of transgenic line expressing the rice Rpl3c:258 (N.dpCARPLC4); assay type: cell-based, N. debneyi
[6] = test system: protoplasts of the genotype Rpl3:c258 (C4 lines); assay type: cell-based, Nicotiana tabacum
[7] = test system: wild type non-transformed N. debneyi cell suspension (N.d.wt); assay type: cell-based
[8] = test system: leaf explants from pCARPLC4 plants; assay type: cell-based
[9] = test system: leaf explants of wild-type plants; assay type: cell-based
[10] = test system: cell suspensions of pCARPL3 plants (N.d.pCARPL3); assay type: cell-based, N. debneyi
[11] = test system: wheat anther-derived callus tissue; conditions: cited from earlier work
mature maize embryos = conditions: cited from earlier work
[12] = test system: maize embryogenic cultures (A188xB73) transformed with pActRPLC4; assay type: cell-based

Compound: CC1=C[C@H]2O[C@@H]3[C@H](O)C[C@](C)([C@@]2(CO)[C@H](O)C1=O)[C@]31CO1 [DON, deoxynivalenol]
- susceptibility of wild-type plants (protoplasts) to DON [1]: susceptible
- micro colony formation from protoplasts [2]: did not often develop into calli
- callus growth, % of the control [3]: 15%
- formation of callus and shoots on leaf explants [4]: inhibiting the formation of callus and shoots
- impact on packed cell volume or cell fresh weight gain [5]: less serious impact
- weight gain of cells after 20 days in culture [5]: not inhibited as much
- micro colony formation from protoplasts [6]: capable of transfer to regeneration medium
- viability of protoplasts [6]: not significantly affected
- weight gain of cells after 20 days in culture [7]: inhibited
- shoot regeneration on leaf explants [8]: capable of shoot regeneration
- formation of callus and shoots on leaf explants [9]: inhibiting the formation of callus and shoots
- packed cell volume and fresh weight gain of cell suspensions [10]: sufficient to inhibit
- weight gain of cells after 20 days in culture [10]: inhibited
- growth of wheat anther-derived callus tissue [11]: reduces growth
- DON concentration sufficient to significantly inhibit growth (mature maize embryos): 10 µg/mL
- DON required to reduce growth to 15% of control values [12]: 50 µg/mL
- callus growth, % of the control [12]: 63%
- increase in tolerance to DON by the RPLC4 callus [12]: 10 fold
